# Measurements published in patent US20230270753A1, “COMBINATIONS OF GABAA ALPHA 5 AGONISTS AND SV2A INHIBITORS AND METHODS OF USING IN THE TREATMENT OF COGNITIVE IMPAIRMENT” (AGENEBIO, INC., priority 2020, published 2023).
# Key:
# aMCI subjects = test: fMRI activity of medial temporal lobe subregions during the explicit 3-alternative forced choice task (Examples 2 and 3); type: in vivo, human
# Protocol: A within-subjects trial of 8 weeks duration, involving 17 amnestic MCI (aMCI) subjects and 17 age-matched controls with a low dose treatment of levetiracetam is conducted. […] Age-matched control subjects treated with placebo serve as a further control. […] The […]
# somatostatin in DG hilus = test: Somatostatin immunohistochemistry, hilar interneuron counts (Example 5); type: in vivo, rat; settings: levetiracetam 10 mg/kg/day in osmotic minipumps for four weeks; aged-impaired rats
# Source text: Tissue was labeled with anti-SOM antiserum (Santa Cruz Biotechnology; cat. no. SC7819-P) using an established immunoperoxidase protocol and tissue sections were processed concurrently to minimize inter-replication variability (Haberman et al., 2009). The anti-SOM antiserum can detect somatostatin. Briefly, sections were washed in 0.1M phosphate-buffered saline (PBS) to remove cryoprotectant, and endogenous peroxidases were quenched in 0.3% H2O2 in PBS. After additional PBS washes, sections were blocked in 5% normal horse serum in PBS with 0.3% Triton. Sections were then incubated with primary antibody at a dilution of 1:1600 in PBS containing 0.15% Triton and 3% normal serum for 72 hours at 4° C. with agitation. […] The secondary antibody was detected with avidin-biotin complex (ABC Elite; Vector Laboratories Inc., Burlingame, Calif.) and the avidin-biotin complex was visualized with nickel-enhanced diaminobenzadine (Vector Laboratories Inc., Burlingame, Calif.). […]
# Interneuron quantification was performed using a Zeiss Axioplan 2 microscope equipped with a motorized stage. […] Neuron counts were analyzed as the total number of hilar interneurons per hippocampal section for each rat.
# [1] = following oral administration; cited from earlier work
compound,measurement,setting,value
"CC[C@@H](C(N)=O)N1CCCC1=O [levetiracetam, (2S)-2-(2-oxopyrrolidin-1-yl)butanamide]",DG/CA3 hyperactivity during memory judgments,"aMCI subjects; levetiracetam 62.5 mg BID for two weeks, aMCI subjects (N=20)",does not significantly reduce
same,entorhinal cortex (EC) activity during memory judgments,"aMCI subjects; levetiracetam 125 mg twice a day for two weeks, aMCI subjects",increases EC activity
same,DG/CA3 activity during lure stimuli correctly identified as similar,"aMCI subjects; levetiracetam 125 mg twice a day for two weeks, vs placebo in same aMCI subjects",reduces DG/CA3 hyper-activity
same,DG/CA3 hyperactivity during memory judgments,"aMCI subjects; levetiracetam 250 mg BID for two weeks, aMCI subjects (N=17)",does not significantly reduce
same,levels of somatostatin in DG hilus (SOM-immunoreactive hilar neurons),somatostatin in DG hilus,restores the levels of somatostatin in DG hilus
same,time of peak plasma concentrations,[1],about 1 hour
